Source: PubChem BioAssay AID1919010 (Molecular Pharmacology Branch, DTP, NCI, 2023)

Test system: Hs578T complex spheroid growth, percent test/control
Assay: Anticancer human tumor Hs578T cell line growth inhibition [AhR];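 further: luminescent viability signal as a proxy for spheroid growth; spheroids exposed to agents for one week after three days of growth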
Details: for IC50: curve of first compound; for viability, T/C: stronger effect = lower value
How it was run: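 Spheroids combined tumor cells with HUVEC endothelial cells and human MSCs as stroma. AhR antagonists were paired with standard or investigational drugs, each dosed in half-log steps down from near clinical Cmax, or from 10 microM where Cmax was unknown.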

[1] = second compound 0.1 µM, first compound 0.000949 µM
[2] = second compound 0.1 µM, first compound 0.003 µM
[3] = second compound 0.1 µM, first compound 0.00949 µM
[4] = second compound 0.1 µM, first compound 0.03 µM
[5] = second compound 0.1 µM, first compound 0.0949 µM
[6] = second compound 0.1 µM, first compound 0.3 µM
[7] = second compound 0.316 µM, first compound 0.000949 µM
[8] = second compound 0.316 µM, first compound 0.003 µM
[9] = second compound 0.316 µM, first compound 0.00949 µM
[10] = second compound 0.316 µM, first compound 0.03 µM
[11] = second compound 0.316 µM, first compound 0.0949 µM
[12] = second compound 0.316 µM, first compound 0.3 µM
[13] = second compound 1 µM, first compound 0.000949 µM
[14] = second compound 1 µM, first compound 0.003 µM
[15] = second compound 1 µM, first compound 0.00949 µM
[16] = second compound 1 µM, first compound 0.03 µM
[17] = second compound 1 µM, first compound 0.0949 µM
[18] = second compound 1 µM, first compound 0.3 µM
[19] = second compound 3.16 µM, first compound 0.000949 µM
[20] = second compound 3.16 µM, first compound 0.003 µM
[21] = second compound 3.16 µM, first compound 0.00949 µM
[22] = second compound 3.16 µM, first compound 0.03 µM
[23] = second compound 3.16 µM, first compound 0.0949 µM
[24] = second compound 3.16 µM, first compound 0.3 µM
[25] = second compound 10 µM, first compound 0.000949 µM
[26] = second compound 10 µM, first compound 0.003 µM
[27] = second compound 10 µM, first compound 0.00949 µM
[28] = second compound 10 µM, first compound 0.03 µM
[29] = second compound 10 µM, first compound 0.0949 µM
[30] = second compound 10 µM, first compound 0.3 µM

`CC(C)CC(NC(=O)C(Cc1ccccc1)NC(=O)c1cnccn1)B(O)O` (stereo not given) + Cc1ccccc1N=Nc1ccc(NC(=O)c2ccnn2C)c(C)c1 was tested, and the IC50 (second compound 0.1 µM) was 5.01 nM, the IC50 (second compound 0.316 µM) was 4.98 nM and the IC50 (second compound 1 µM) was 5.47 nM. The IC50 (second compound 3.16 µM) was 4.53 nM, the IC50 (second compound 10 µM) was 3.14 nM and the viability, T/C [1] was 107%. The viability, T/C [2] was 80.8%, the viability, T/C [3] was 11.7% and the viability, T/C [4] was 0.3%. The viability, T/C [5] was 0.81%, the viability, T/C [6] was 0.36% and the viability, T/C [7] was 94.6%. It also gave a viability, T/C [8] of 78.1%, a viability, T/C [9] of 14.1% and a viability, T/C [10] of 0.31%. The viability, T/C [11] was 0.28%, the viability, T/C [12] was 0.33% and the viability, T/C [13] was 98.2%. The viability, T/C [14] was 86.1%, the viability, T/C [15] was 16.9% and the viability, T/C [16] was 0.65%. For the same compound, the viability, T/C [17] was 0.44%, the viability, T/C [18] was 1.31% and the viability, T/C [19] was 88.6%. For the same compound, the viability, T/C [20] was 68.7%, the viability, T/C [21] was 16.6% and the viability, T/C [22] was 0.34%. The viability, T/C [23] was 0.39%, the viability, T/C [24] was 0.32% and the viability, T/C [25] was 62.1%. It also gave a viability, T/C [26] of 51.2%, a viability, T/C [27] of 16.6% and a viability, T/C [28] of 0.45%. For the same compound, the viability, T/C [29] was 0.83% and the viability, T/C [30] was 0.53%.
`CCc1c2c(nc3ccc(O)cc13)-c1cc3c(c(=O)n1C2)COC(=O)[C@]3(O)CC` + Cc1ccccc1N=Nc1ccc(NC(=O)c2ccnn2C)c(C)c1 gave an IC50 (second compound 0.1 µM) of 84.6 nM, an IC50 (second compound 0.316 µM) of 130 nM and an IC50 (second compound 1 µM) of 68.7 nM. It also gave an IC50 (second compound 3.16 µM) of 39.1 nM, an IC50 (second compound 10 µM) of 8.73 nM and a viability, T/C [1] of 77.4%. It also gave a viability, T/C [2] of 76.4%, a viability, T/C [3] of 73.1% and a viability, T/C [4] of 57.9%. The viability, T/C [5] was 50.8%, the viability, T/C [6] was 31.5% and the viability, T/C [7] was 91%. The viability, T/C [8] was 78.4%, the viability, T/C [9] was 72.1% and the viability, T/C [10] was 65.4%. The viability, T/C [11] was 53%, the viability, T/C [12] was 41.5% and the viability, T/C [13] was 72.8%. For the same compound, the viability, T/C [14] was 69.4%, the viability, T/C [15] was 69.1% and the viability, T/C [16] was 60.9%. The viability, T/C [17] was 45.7%, the viability, T/C [18] was 36.7% and the viability, T/C [19] was 69.1%. For the same compound, the viability, T/C [20] was 73.8%, the viability, T/C [21] was 62.5% and the viability, T/C [22] was 52%. It also gave a viability, T/C [23] of 41.8%, a viability, T/C [24] of 31.9% and a viability, T/C [25] of 60.4%. For the same compound, the viability, T/C [26] was 51.1%, the viability, T/C [27] was 50.7% and the viability, T/C [28] was 46.3%. For the same compound, the viability, T/C [29] was 34.7% and the viability, T/C [30] was 30.3%.
`Nc1ccccc1NC(=O)c1ccc(CNC(=O)OCc2cccnc2)cc1` + Cc1ccccc1N=Nc1ccc(NC(=O)c2ccnn2C)c(C)c1 gave an IC50 (second compound 0.1 µM) of 1320 nM, an IC50 (second compound 0.316 µM) of 1300 nM and an IC50 (second compound 1 µM) of 1480 nM. It also gave an IC50 (second compound 3.16 µM) of 1480 nM, an IC50 (second compound 10 µM) of 1320 nM and a viability, T/C (second compound 0.1 µM, first compound 0.0316 µM) of 100%. The viability, T/C (second compound 0.1 µM, first compound 0.1 µM) was 90.9%, the viability, T/C (second compound 0.1 µM, first compound 0.316 µM) was 85.2% and the viability, T/C (second compound 0.1 µM, first compound 1 µM) was 62.2%. For the same compound, the viability, T/C (second compound 0.1 µM, first compound 3.16 µM) was 16.1%, the viability, T/C (second compound 0.1 µM, first compound 10 µM) was 0.74% and the viability, T/C (second compound 0.316 µM, first compound 0.0316 µM) was 100%. The viability, T/C (second compound 0.316 µM, first compound 0.1 µM) was 86.2%, the viability, T/C (second compound 0.316 µM, first compound 0.316 µM) was 82.5% and the viability, T/C (second compound 0.316 µM, first compound 1 µM) was 62.1%. For the same compound, the viability, T/C (second compound 0.316 µM, first compound 3.16 µM) was 16.4%, the viability, T/C (second compound 0.316 µM, first compound 10 µM) was 1.06% and the viability, T/C (second compound 1 µM, first compound 0.0316 µM) was 97.6%. For the same compound, the viability, T/C (second compound 1 µM, first compound 0.1 µM) was 95.2%, the viability, T/C (second compound 1 µM, first compound 0.316 µM) was 95.5% and the viability, T/C (second compound 1 µM, first compound 1 µM) was 66.4%. It also gave a viability, T/C (second compound 1 µM, first compound 3.16 µM) of 17.6%, a viability, T/C (second compound 1 µM, first compound 10 µM) of 1.6% and a viability, T/C (second compound 3.16 µM, first compound 0.0316 µM) of 89.5%. For the same compound, the viability, T/C (second compound 3.16 µM, first compound 0.1 µM) was 79.6%, the viability, T/C (second compound 3.16 µM, first compound 0.316 µM) was 93.3% and the viability, T/C (second compound 3.16 µM, first compound 1 µM) was 66.2%. For the same compound, the viability, T/C (second compound 3.16 µM, first compound 3.16 µM) was 16.9%, the viability, T/C (second compound 3.16 µM, first compound 10 µM) was 1.24% and the viability, T/C (second compound 10 µM, first compound 0.0316 µM) was 61%. For the same compound, the viability, T/C (second compound 10 µM, first compound 0.1 µM) was 62.5%, the viability, T/C (second compound 10 µM, first compound 0.316 µM) was 64.9% and the viability, T/C (second compound 10 µM, first compound 1 µM) was 59.5%. For the same compound, the viability, T/C (second compound 10 µM, first compound 3.16 µM) was 19.6% and the viability, T/C (second compound 10 µM, first compound 10 µM) was 1.69%.
